# Measurements published in patent US6417220B2, “Mitochondrial membrane stabilizer” (Daiichi Pharmaceutical Co., Ltd., priority 1996, dated 2002).
# What was measured:
# NG108-15 cells [1] = experiment: Determination of the intracellular Ca2+ concentration (fura2-AM fluorescence ratio); format: cell-based
# Source text: The present invention will be explained more specifically by referring to the following examples. However, the scope of the present invention is not limited to these examples. The test procedure in the examples was according to the method of Hare et al. (Hare, M. F., et. al., JPET, 266, pp.1626-1635, 1993) unless otherwise indicated. In the examples, “Nefiracetam” means 2-oxo-1-pyrrolidinylacetic acid 2,6-dimethylanilide, and “Ro5-4864” means the mitochondrias benzodiazepine receptor agonist, (7-chloro-5-(4-chlorophenyl)-1,3-dihydro-1-methyl-2H-1,4-benzodiazepin-2-one: TIPS, December, pp. 506-511, 1986).
# Changes in the intracellular Ca^2+ concentration caused by Ro5-4864 was studied. Cultured cells (NG108-15 cells: nerve cell x neuroglia cell hybrid) were cultured in DMEM culture medium, and further cultured in Flexiperm Disc (Heraeus Biotechnology) provided with a cover glass and used in the following described below. The cultured NG 108-15 cells were added with Ro5-4864 at final concentration of […]. A fluorescent remedicament, fura2-AM (1-(6-amino-2-(5-carboxy-2-oxazoly-5-benzofuranyloxy)-2-(2-amino-5-methylphenoxy)-ethane-N,N,N′,N′-teraacetic acid, pentaacetoxymethyl ester, Dojindo Laboratories) was dissolved in DMSO (Dimethylsulfoxide, Nakarai Chemical) to prepare a 1 mM solution, and this solution was diluted 200 times with HBS (Herpes-saline solution, composition: NaCl; 130 mM; KCl: 5.4 mM; CaCl2: 1.8 mM; MgSO4: 0.8 mM; D-glucose: 20 mM; Na^+-HEPES; 20 mM, pH 7.3) to prepare a fluorescent reagent solution (final concentration of fra2-AM: 5 μM).
# For the determination of intracellular Ca^2+ concentrations, the culture medium was removed from the Petri dish where the NG108-15 cells were cultured, and the dish was washed twice with HBS. The cultured cells were added with the 5 μM fura2-AM solution prepared above, put in a carbon dioxide gas incubator for 30 minutes, and then washed with HBS five times to remove the added fura2-AM solution. Finally, 1 ml of HBS was added to the Flexiperm, and the intracellular Ca^2+ concentration was measured by ARGUS-50/CA (Hamamatsu Photonics). According to this measurement, the fluorescence of Ca^2+-bound type fura-2 emitted at an excitation wavelength of 340 nm and the fluorescence of Ca^2+-free type fura-2 emitted at an excitation wavelength of 380 nm were measured as a pair at a constant interval for the fura-2 loaded cultured cells, and their relative ratio (ratio of fluorescence intensity) was used to analyze the intracellular Ca^2+ dynamics (concentration). An increase in the 340 nm excited fluorescence due to the binding of intracellular calcium ions to the fura2-AM, and a decrease in the 380 nm excited fluorescence were recorded by imaging and the ratio of fluorescence intensity between the fluorescence images was obtained.
# NG108-15 cells [2] = experiment: Determination of the mitochondrial membrane potential (Rhodamine 123 fluorescence); format: cell-based
# [3] = male mouse, p.o.; cited from earlier work
smiles,measurement,setting,value
"CN(C(=O)Cn1c(=O)n2c(Br)c(-c3cccc(Cl)c3)nc2c2ccccc21)c1ccccc1 [NCS-1044-90, 2-(3-Chlorophenyl)-3-bromo-6-(N-methyl-N-phenylacetamido)-5-oxo-5,6-dihydroimidazo[1,2-c]quinazoline]",change in intracellular Ca2+ concentration on addition of Ro5-4864,"NG108-15 cells [1]; Ro5-4864 100 μM applied to cells treated beforehand with NCS-1044-90 10 μM, FIG. 9",only a very small elevation
same,change in intracellular mitochondrial membrane potential,"NG108-15 cells [2]; NCS-1044-90 10 μM alone, FIG. 10",No change
same,change in intracellular mitochondrial membrane potential on addition of Ro5-4864,"NG108-15 cells [2]; Ro5-4864 50 μM added to cells treated with NCS-1044-90 10 μM, FIG. 10",only a very small elevation
same,change in intracellular mitochondrial membrane potential on further addition of Ro5-4864,"NG108-15 cells [2]; further treatment with Ro5-4864 100 μM, cells treated with NCS-1044-90 10 μM, FIG. 10",slight and gentle elevation
"Cn1c(=O)c2c(ncn2C)n(C)c1=O [caffeine, reference compound]",change in mitochondrial membrane potential,"NG108-15 cells [2]; caffeine 10 μM and bradykinin 1 μM applied, FIG. 4",no alteration
"CN1C(=O)CN=C(c2ccc(Cl)cc2)c2cc(Cl)ccc21 [Ro5-4864, 7-chloro-5-(4-chlorophenyl)-1,3-dihydro-1-methyl-2H-1,4-benzodiazepin-2-one]",change in intracellular Ca2+ concentration,"NG108-15 cells [1]; Ro5-4864 25 μM alone, FIG. 5, first peak",elevation
same,change in intracellular Ca2+ concentration,"NG108-15 cells [1]; Ro5-4864 50 μM alone, FIG. 7, first peak",elevation
same,change in intracellular Ca2+ concentration,"NG108-15 cells [1]; Ro5-4864 50 μM applied after bradykinin and caffeine treatment (endoplasmic reticulum Ca2+ depleted), FIG. 3",markedly elevated
same,change in intracellular Ca2+ concentration,"NG108-15 cells [1]; Ro5-4864 alone, FIG. 1",sharply increases
same,change in mitochondrial membrane potential,"NG108-15 cells [2]; Ro5-4864 50 μM alone, FIG. 2",remarkably decreased
same,change in mitochondrial membrane potential,"NG108-15 cells [2]; Ro5-4864 50 μM applied after caffeine and bradykinin, FIG. 4",remarkable decrease
"Cc1cccc(C)c1NC(=O)CN1CCCC1=O [Nefiracetam, 2-oxo-1-pyrrolidinylacetic acid 2,6-dimethylanilide]",change in intracellular Ca2+ concentration,"NG108-15 cells [1]; Nefiracetam 50 μM alone, after washing, FIG. 5",no change
same,change in intracellular Ca2+ concentration on addition of Ro5-4864,"NG108-15 cells [1]; Ro5-4864 25 μM in the presence of Nefiracetam 50 μM, FIG. 5",almost no change
same,change in mitochondrial membrane potential,"NG108-15 cells [2]; Nefiracetam 50 μM alone, FIG. 6",no change
same,change in mitochondrial membrane potential on addition of Ro5-4864,"NG108-15 cells [2]; Ro5-4864 25 μM in the presence of Nefiracetam 50 μM, FIG. 6",almost no change
same,depolarizing effect of Ro5-4864 on mitochondrial membranes,"NG108-15 cells [2]; Ro5-4864 50 μM in the presence of Nefiracetam, FIG. 6",weak
same,acute toxicity,[3],"2,005 mg/kg"
